Measured values reported in patent US11613525B2 (CTXT PTY LIMITED, priority 2018, dated 2023).
Structures can show the parent of a compound that is named as a salt. Where two headings read alike, the source gives them in different places.

Legend:
huSTING (HAQ) = huSTING (HAQ) (Homo sapiens (Human), UniProt Q86WV6, G230A/H232R/R293Q/R71H); assay: THP-1 reporter cell line assay, THP-1 STING Lucia ISG cells; format: cell-based; conditions: THP-1 STING Lucia ISG cells, read-out: Cellular EC50 huSTING (HAQ)
Chain of huSTING (HAQ) (Q86WV6 whole entry R71H/G230A/H232R/R293Q): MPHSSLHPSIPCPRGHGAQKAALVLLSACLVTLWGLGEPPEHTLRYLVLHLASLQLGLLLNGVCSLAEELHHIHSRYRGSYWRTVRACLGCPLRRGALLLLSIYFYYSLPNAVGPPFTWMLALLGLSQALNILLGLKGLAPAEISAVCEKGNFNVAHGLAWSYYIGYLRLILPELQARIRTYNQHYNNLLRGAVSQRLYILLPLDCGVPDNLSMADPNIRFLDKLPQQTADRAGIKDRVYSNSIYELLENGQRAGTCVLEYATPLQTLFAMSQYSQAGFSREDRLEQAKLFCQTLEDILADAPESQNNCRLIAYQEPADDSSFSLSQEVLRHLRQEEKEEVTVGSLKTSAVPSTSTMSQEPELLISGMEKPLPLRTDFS

human STING (HAQ) = human STING (HAQ) (Homo sapiens, UniProt Q86WV6, G230A/H232R/R293Q); assay: biochemical; format: binding; conditions: for ΔTm at 100 µM: read-out: DSF huSTING (HAQ) ΔTm (° C.)
Chain of human STING (HAQ) (Q86WV6 whole entry G230A/H232R/R293Q, looked up): as the sequence (Q86WV6 whole entry R71H/G230A/H232R/R293Q) above, with H71R counted along it
Description: (§1) DSF monitors thermal unfolding of protein in the presence of a fluorescent dye and is typically performed using a real-time PCR instrument. The temperature at which a protein unfolds is measured by an increase in the fluorescence of a dye with affinity for hydrophobic parts of the protein that are gradually exposed during unfolding. The fluorescence of the dye is quenched in aqueous environments, but when the dye associates with hydrophobic sites on the unfolded protein, its fluorescence increases. The fluorescence intensity is plotted as a function of the temperature, generating a sigmoidal curve that can be described by a two-state transition. The inflection point of the transition curve (Tm) is calculated using simple equations such as that of Boltzman.
(§2) Sealed plates were then placed into a Bio-Rad CFX96/C1000 thermocycler and FRET scanning mode (λ^excitation of 490 nm and reads at λ^emission of 570 nm) was used to measure fluorescence intensity. […] The melting point (Tm) obtained for STING protein alone was subtracted from Tm obtained for protein incubated with ligand to generate ΔTm values listed in the table below.
(§3) These additional compounds were tested as described above, however the protein concentration was 2 μM.

huSTING (WT) [1] = target: T1, huSTING (WT) (Homo sapiens (Human), UniProt Q86WV6, H232R); assay: THP-1 reporter cell line assay, THP-1-Dual KI-hSTING-R232 cells; format: cell-based; conditions: read-out: Cellular EC50 huSTING (WT)
Target sequence in this assay (Q86WV6 whole entry H232R): as the sequence (Q86WV6 whole entry R71H/G230A/H232R/R293Q) above, with H71R, A230G, Q293R counted along it

huSTING (WT) [2] = target: T1, huSTING (WT); assay: Differential scanning fluorimetry (DSF), huSTING (WT); format: binding
Description: as §1, §2, §3
Target sequence in this assay (Q86WV6 other isoform, or with tags, fused parts or gaps, stated change not applied): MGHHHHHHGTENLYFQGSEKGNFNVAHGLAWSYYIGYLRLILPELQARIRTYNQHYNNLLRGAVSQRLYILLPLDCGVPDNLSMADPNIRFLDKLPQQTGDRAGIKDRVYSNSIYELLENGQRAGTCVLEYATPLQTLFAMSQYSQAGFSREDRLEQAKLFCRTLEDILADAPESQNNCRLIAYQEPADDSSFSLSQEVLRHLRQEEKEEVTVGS

[3] = modified method, top concentration 40 μM, pin tool, EnVision

CCOC(=O)c1sc2cccc(F)c2c1COc1c(F)cc(C(N)=O)cc1F [Example 2, Ethyl 3-((4-carbamoyl-2,6-difluorophenoxy)methyl)-4-fluorobenzo[b]thiophene-2-carboxylate]
EC50 (huSTING (HAQ); 24 h, top concentration 50 μM): 2.07 µM | ΔTm at 100 µM (human STING (HAQ)): 1.44 °C | EC50 (huSTING (WT) [1]): > 50 µM

CC(C)OC(=O)c1sc2cccc(F)c2c1COc1ccc(C(N)=O)cc1 [Example 4, Isopropyl 3-((4-carbamoylphenoxy)methyl)-4-fluorobenzo[b]thiophene-2-carboxylate]
EC50 (huSTING (HAQ); 24 h, top concentration 50 μM): 2.58 µM | ΔTm at 100 µM (human STING (HAQ)): 0.13 °C | EC50 (huSTING (WT) [1]): > 50 µM

CCOC(=O)c1sc2cccc(Cl)c2c1COc1ccc(C(N)=O)cc1 [Example 7, Ethyl 3-((4-carbamoylphenoxy)methyl)-4-chlorobenzo[b]thiophene-2-carboxylate]
EC50 (huSTING (HAQ); 24 h, top concentration 50 μM): 0.705 µM | ΔTm at 100 µM (human STING (HAQ)): 0.26 °C | EC50 (huSTING (WT) [1]): 8.94 µM

NC(=O)c1ccc(OCc2c(C(=O)O)sc3cccc(Cl)c23)cc1 [Example 8, 3-((4-Carbamoylphenoxy)methyl)-4-chlorobenzo[b]thiophene-2-carboxylic acid]
DSF huSTING (HAQ) ΔTm (° C.) (human STING (HAQ); 1 μM protein, compound at 100 μM): 13.96 °C

CC(C)(C)C(=O)OCOC(=O)c1sc2cccc(Cl)c2c1COc1ccc(C(N)=O)cc1 [Example 74, (Pivaloyloxy)methyl 3-((4-carbamoylphenoxy)methyl)-4-chlorobenzo[b]thiophene-2-carboxylate]
EC50 (huSTING (HAQ); 24 h, top concentration 50 μM): 1.05 µM | EC50 (huSTING (WT) [1]): 2.47 µM | ΔTm at 100 µM (huSTING (WT) [2]; 1 μM protein, compound at 100 μM, read-out: DSF huSTING (WT) ΔTm (° C.)): -4.22 °C

NC(=O)c1cc(F)c(OCc2c(C(=O)O)sc3cccc(Cl)c23)c(CO)c1 [Example 111, 3-((4-Carbamoyl-2-fluoro-6-(hydroxymethyl)phenoxy)methyl)-4-chlorobenzo[b]thiophene-2-carboxylic acid]
EC50 (huSTING (HAQ); [3]): 16.2 µM | EC50 (huSTING (WT) [1]): 17.2 µM | DSF huSTING (WT) ΔTm (° C.) (huSTING (WT) [2]; compound 100 μM, protein concentration 2 μM): 10.88 °C

COC(=O)c1sc2cccc(F)c2c1COc1ccc(C(N)=O)cc1 [Example 141, Methyl 3-((4-carbamoylphenoxy)methyl)-4-fluorobenzo[b]thiophene-2-carboxylate]
EC50 (huSTING (HAQ); [3]): 1.77 µM | EC50 (huSTING (WT) [1]): 3.34 µM

CCOC(=O)c1sc2cccc(C3CC3)c2c1COc1c(F)cc(C(N)=O)cc1F [Example 142, Ethyl 3-((4-carbamoyl-2,6-difluorophenoxy)methyl)-4-cyclopropylbenzo[b]thiophene-2-carboxylate]
EC50 (huSTING (HAQ); [3]): 0.181 µM | EC50 (huSTING (WT) [1]): 3.12 µM

CCOC(=O)c1sc2c(C)ccc(Cl)c2c1COc1c(F)cc(C(N)=O)cc1F [Example 144, Ethyl 3-((4-carbamoyl-2,6-difluorophenoxy)methyl)-4-chloro-7-methylbenzo[b]thiophene-2-carboxylate]
EC50 (huSTING (HAQ); [3]): 0.023 µM | EC50 (huSTING (WT) [1]): 0.925 µM

CCOC(=O)c1sc2c(CO)ccc(Cl)c2c1COc1c(F)cc(C(N)=O)cc1F [Example 145, Ethyl 3-((4-carbamoyl-2,6-difluorophenoxy)methyl)-4-chloro-7-(hydroxymethyl)benzo[b]thiophene-2-carboxylate]
EC50 (huSTING (HAQ); [3]): 0.746 µM | EC50 (huSTING (WT) [1]): 3.84 µM

CCOC(=O)c1sc2c(COC)ccc(Cl)c2c1COc1c(F)cc(C(N)=O)cc1F [Example 146, Ethyl 3-((4-carbamoyl-2,6-difluorophenoxy)methyl)-4-chloro-7-(methoxymethyl)benzo[b]thiophene-2-carboxylate]
EC50 (huSTING (HAQ); [3]): 0.041 µM | EC50 (huSTING (WT) [1]): 2.15 µM

CCOC(=O)c1sc2c(O)ccc(Cl)c2c1COc1c(F)cc(C(N)=O)cc1F [Example 147, Ethyl 3-((4-carbamoyl-2,6-difluorophenoxy)methyl)-4-chloro-7-hydroxybenzo[b]thiophene-2-carboxylate]
EC50 (huSTING (HAQ); [3]): 0.065 µM | EC50 (huSTING (WT) [1]): 1.62 µM

CCOC(=O)c1sc2c(OC)ccc(Cl)c2c1COc1c(F)cc(C(N)=O)cc1F [Example 149, Ethyl 3-((4-carbamoyl-2,6-difluorophenoxy)methyl)-4-chloro-7-methoxybenzo[b]thiophene-2-carboxylate]
EC50 (huSTING (HAQ); [3]): 0.613 µM | EC50 (huSTING (WT) [1]): 0.797 µM

CCOC(=O)c1sc2cccc(Cl)c2c1COc1ccc(C(N)=O)c(COC)c1 [Example 150, Ethyl 3-((4-carbamoyl-3-(methoxymethyl)phenoxy)methyl)-4-chlorobenzo[b]thiophene-2-carboxylate]
EC50 (huSTING (HAQ); [3]): 0.55 µM | EC50 (huSTING (WT) [1]): 0.489 µM

CCOC(=O)c1sc2cccc(Cl)c2c1COc1ccc(C(N)=O)c(-c2cn[nH]c2)c1 [Example 151, Ethyl 3-((4-carbamoyl-3-(1H-pyrazol-4-yl)phenoxy)methyl)-4-chlorobenzo[b]thiophene-2-carboxylate]
EC50 (huSTING (HAQ); [3]): 1.82 µM | EC50 (huSTING (WT) [1]): 3.46 µM

CC(C)[C@H](N)C(=O)OCOC(=O)c1sc2cccc(Cl)c2c1COc1c(F)cc(C(N)=O)cc1F [Example 152, ((L-Valyl)oxy)methyl 3-((4-carbamoyl-2,6-difluorophenoxy)methyl)-4-chlorobenzo[b]thiophene-2-carboxylate trifluoroacetate salt]
EC50 (huSTING (HAQ); [3]): 0.967 µM | EC50 (huSTING (WT) [1]): 53.7 µM

CCOC(=O)c1sc2c(C#N)ccc(Cl)c2c1COc1c(F)cc(C(N)=O)cc1F [Example 153, Ethyl 3-((4-carbamoyl-2,6-difluorophenoxy)methyl)-4-chloro-7-cyanobenzo[b]thiophene-2-carboxylate]
EC50 (huSTING (HAQ); [3]): 0.129 µM | EC50 (huSTING (WT) [1]): 0.207 µM

COc1cccc2sc(C(=O)OC(C)C)c(COc3ccc(C(N)=O)cc3)c12 [Example 154, Isopropyl 3-((4-carbamoylphenoxy)methyl)-4-methoxybenzo[b]thiophene-2-carboxylate]
EC50 (huSTING (HAQ); [3]): 0.448 µM | EC50 (huSTING (WT) [1]): 2.05 µM

COc1cccc2sc(C(=O)OC3CCCC3)c(COc3ccc(C(N)=O)cc3)c12 [Example 155, Cyclopentyl 3-((4-carbamoylphenoxy)methyl)-4-methoxybenzo[b]thiophene-2-carboxylate]
EC50 (huSTING (HAQ); [3]): 0.23 µM | EC50 (huSTING (WT) [1]): 3.82 µM

COc1cccc2sc(C(=O)OCc3ccccc3)c(COc3ccc(C(N)=O)cc3)c12 [Example 156, Benzyl 3-((4-carbamoylphenoxy)methyl)-4-methoxybenzo[b]thiophene-2-carboxylate]
EC50 (huSTING (HAQ); [3]): 0.628 µM | EC50 (huSTING (WT) [1]): 4.51 µM

COc1cccc2sc(C(=O)OCCN3CCOCC3)c(COc3ccc(C(N)=O)cc3)c12 [Example 157, 2-Morpholinoethyl 3-((4-carbamoylphenoxy)methyl)-4-methoxybenzo[b]thiophene-2-carboxylate]
EC50 (huSTING (HAQ); [3]): 0.373 µM | EC50 (huSTING (WT) [1]): 2.03 µM

COC(=O)N1CCC(OC(=O)c2sc3cccc(Cl)c3c2COc2c(F)cc(C(N)=O)cc2F)CC1 [Example 163, Methyl 4-((3-((4-carbamoyl-2,6-difluorophenoxy)methyl)-4-chlorobenzo[b]thiophene-2-carbonyl)oxy)piperidine-1-carboxylate]
EC50 (huSTING (HAQ); [3]): 0.062 µM | EC50 (huSTING (WT) [1]): 1.56 µM

CN1CC(OC(=O)c2sc3cccc(Cl)c3c2COc2c(F)cc(C(N)=O)cc2F)C1 [Example 164, 1-Methylazetidin-3-yl 3-((4-carbamoyl-2,6-difluorophenoxy)methyl)-4-chlorobenzo[b]thiophene-2-carboxylate]
EC50 (huSTING (HAQ); [3]): 0.027 µM | EC50 (huSTING (WT) [1]): 0.249 µM

CCOC(=O)c1sc2cccc(OC)c2c1COc1c(F)cc(C(N)=O)cc1F [Example 165, Ethyl 3-((4-carbamoyl-2,6-difluorophenoxy)methyl)-4-methoxybenzo[b]thiophene-2-carboxylate]
EC50 (huSTING (HAQ); [3]): 0.127 µM | EC50 (huSTING (WT) [1]): 6.15 µM

NC(=O)c1ccc(OCc2c(C(=O)NCc3ccccc3)sc3cccc(Br)c23)cc1 [Example 166, N-Benzyl-4-bromo-3-((4-carbamoylphenoxy)methyl)benzo[b]thiophene-2-carboxamide]
EC50 (huSTING (HAQ); [3]): 9.95 µM | EC50 (huSTING (WT) [1]): 28.9 µM

C=Cc1cc(OCc2c(C(=O)OCC)sc3cccc(Cl)c23)ccc1C(N)=O [Example 168, Ethyl 3-((4-carbamoyl-3-vinylphenoxy)methyl)-4-chlorobenzo[b]thiophene-2-carboxylate]
EC50 (huSTING (HAQ); [3]): 7.44 µM | EC50 (huSTING (WT) [1]): > 40 µM

CCOC(=O)c1sc2cncc(Cl)c2c1COc1c(F)cc(C(N)=O)cc1F [Example 170, Ethyl 3-((4-carbamoyl-2,6-difluorophenoxy)methyl)-4-chlorothieno[2,3-c]pyridine-2-carboxylate]
EC50 (huSTING (HAQ); [3]): 0.189 µM | EC50 (huSTING (WT) [1]): 0.45 µM

CC(C)(C)C(=O)OCOC(=O)c1sc2cccc(Cl)c2c1COc1c(F)cc(C(N)=O)cc1F [Example 173, (Pivaloyloxy)methyl 3-((4-carbamoyl-2,6-difluorophenoxy)methyl)-4-chlorobenzo[b]thiophene-2-carboxylate]
EC50 (huSTING (HAQ); [3]): 0.055 µM | EC50 (huSTING (WT) [1]): 0.208 µM

Cc1ccc2sc(C(=O)OCOC(=O)C(C)(C)C)c(COc3ccc(C(N)=O)cc3)c2c1Cl [Example 174, (Pivaloyloxy)methyl 3-((4-carbamoylphenoxy)methyl)-4-chloro-5-methylbenzo[b]thiophene-2-carboxylate]
EC50 (huSTING (HAQ); [3]): 4.72 µM | EC50 (huSTING (WT) [1]): 25.6 µM
